According to patent US10711002B2, “Purine compounds and method for the treatment of cancer” (THE ROYAL INSTITUTION FOR THE ADVANCEMENT OF …, priority 2016, dated 2020):

Columns and labels:
Test in all cases: High-throughput kinase assay
Type in all cases: biochemical
[1] = biological target: PRKCQ (PKC theta) (Homo sapiens, UniProt Q04759); settings: 50 nM; read-out: Percent inhibition of kinase activity in vitro, PRKCQ (PKC theta)
Protocol: (§1) Screening of Compounds 1-4 against several kinases identified two prominent targets of these compounds as the Aurora A kinase and calcium dependent protein kinase C isoforms α, βI, βII and […] (Tables 1 to 3). IC50s for these two targets were obtained by plotting inhibition levels at 500 nM, 100 nM, 50 nM and 10 nM (FIG. 3). These kinases are directly involved in pathways controlling cell differentiation programs, metastasis signaling, as well as EMT and CSC programming and their overexpression was reported to predict decreased metastasis-free survival.

[2] = biological target: T1, PRKD1 (PKC mu) (Homo sapiens, UniProt Q15139); settings: 50 nM; read-out: Percent inhibition of kinase activity in vitro, PRKD1 (PKC mu)
T1 sequence (Q15139 1-912): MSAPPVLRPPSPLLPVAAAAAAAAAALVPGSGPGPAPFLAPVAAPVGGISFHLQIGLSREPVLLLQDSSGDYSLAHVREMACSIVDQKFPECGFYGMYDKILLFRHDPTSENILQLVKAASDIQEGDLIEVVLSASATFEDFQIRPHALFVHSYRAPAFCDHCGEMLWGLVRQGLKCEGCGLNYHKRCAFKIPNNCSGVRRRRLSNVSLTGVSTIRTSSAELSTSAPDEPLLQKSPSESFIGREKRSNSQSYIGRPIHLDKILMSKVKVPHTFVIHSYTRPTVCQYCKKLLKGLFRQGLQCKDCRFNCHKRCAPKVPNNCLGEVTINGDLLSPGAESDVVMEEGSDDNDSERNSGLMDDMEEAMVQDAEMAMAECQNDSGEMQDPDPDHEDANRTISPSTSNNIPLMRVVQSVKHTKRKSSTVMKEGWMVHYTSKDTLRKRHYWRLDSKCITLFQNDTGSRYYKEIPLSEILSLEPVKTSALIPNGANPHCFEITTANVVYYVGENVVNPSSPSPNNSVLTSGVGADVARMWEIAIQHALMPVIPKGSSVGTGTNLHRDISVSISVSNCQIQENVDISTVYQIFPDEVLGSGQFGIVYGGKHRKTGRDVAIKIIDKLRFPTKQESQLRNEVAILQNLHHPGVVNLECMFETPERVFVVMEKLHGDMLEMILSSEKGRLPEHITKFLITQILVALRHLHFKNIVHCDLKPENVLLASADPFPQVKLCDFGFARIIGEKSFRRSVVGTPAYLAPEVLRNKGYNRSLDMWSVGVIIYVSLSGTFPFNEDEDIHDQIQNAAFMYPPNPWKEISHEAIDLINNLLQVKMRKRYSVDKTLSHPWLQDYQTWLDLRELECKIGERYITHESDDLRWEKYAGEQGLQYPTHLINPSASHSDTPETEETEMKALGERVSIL
Protocol: as §1

[3] = biological target: PRKCB1 (PKC beta I) (Homo sapiens, UniProt P05771); settings: 50 nM; read-out: Percent inhibition of kinase activity in vitro, PRKCB1 (PKC beta I)
Sequence of PRKCB1 (PKC beta I) (P05771 whole entry): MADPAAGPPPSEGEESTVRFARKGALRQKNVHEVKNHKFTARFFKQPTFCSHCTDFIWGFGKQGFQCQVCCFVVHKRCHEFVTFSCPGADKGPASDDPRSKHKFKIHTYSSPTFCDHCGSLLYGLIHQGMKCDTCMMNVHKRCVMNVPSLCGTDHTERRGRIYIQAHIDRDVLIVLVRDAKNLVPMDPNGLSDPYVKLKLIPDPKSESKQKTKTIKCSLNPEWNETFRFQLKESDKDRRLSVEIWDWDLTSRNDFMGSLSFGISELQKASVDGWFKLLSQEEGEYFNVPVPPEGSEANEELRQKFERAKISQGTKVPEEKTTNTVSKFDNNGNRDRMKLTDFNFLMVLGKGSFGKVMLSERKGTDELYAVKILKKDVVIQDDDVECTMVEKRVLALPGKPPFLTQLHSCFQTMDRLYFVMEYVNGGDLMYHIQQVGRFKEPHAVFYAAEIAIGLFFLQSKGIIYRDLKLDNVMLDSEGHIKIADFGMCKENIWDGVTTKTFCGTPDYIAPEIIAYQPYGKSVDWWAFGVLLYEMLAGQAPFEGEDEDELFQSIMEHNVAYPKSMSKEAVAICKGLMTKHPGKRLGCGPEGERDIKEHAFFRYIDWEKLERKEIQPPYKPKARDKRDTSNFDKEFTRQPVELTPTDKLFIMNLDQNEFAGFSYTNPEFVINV
Protocol: as §1

[4] = biological target: MET (cMet) (Homo sapiens, UniProt P08581); settings: read-out: Percent inhibition of kinase activity in vitro, MET (cMet); for inhibition at 0.1 µM: 100 nM; for inhibition at 0.5 µM: 500 nM
Sequence of MET (cMet) (P08581 25-1390): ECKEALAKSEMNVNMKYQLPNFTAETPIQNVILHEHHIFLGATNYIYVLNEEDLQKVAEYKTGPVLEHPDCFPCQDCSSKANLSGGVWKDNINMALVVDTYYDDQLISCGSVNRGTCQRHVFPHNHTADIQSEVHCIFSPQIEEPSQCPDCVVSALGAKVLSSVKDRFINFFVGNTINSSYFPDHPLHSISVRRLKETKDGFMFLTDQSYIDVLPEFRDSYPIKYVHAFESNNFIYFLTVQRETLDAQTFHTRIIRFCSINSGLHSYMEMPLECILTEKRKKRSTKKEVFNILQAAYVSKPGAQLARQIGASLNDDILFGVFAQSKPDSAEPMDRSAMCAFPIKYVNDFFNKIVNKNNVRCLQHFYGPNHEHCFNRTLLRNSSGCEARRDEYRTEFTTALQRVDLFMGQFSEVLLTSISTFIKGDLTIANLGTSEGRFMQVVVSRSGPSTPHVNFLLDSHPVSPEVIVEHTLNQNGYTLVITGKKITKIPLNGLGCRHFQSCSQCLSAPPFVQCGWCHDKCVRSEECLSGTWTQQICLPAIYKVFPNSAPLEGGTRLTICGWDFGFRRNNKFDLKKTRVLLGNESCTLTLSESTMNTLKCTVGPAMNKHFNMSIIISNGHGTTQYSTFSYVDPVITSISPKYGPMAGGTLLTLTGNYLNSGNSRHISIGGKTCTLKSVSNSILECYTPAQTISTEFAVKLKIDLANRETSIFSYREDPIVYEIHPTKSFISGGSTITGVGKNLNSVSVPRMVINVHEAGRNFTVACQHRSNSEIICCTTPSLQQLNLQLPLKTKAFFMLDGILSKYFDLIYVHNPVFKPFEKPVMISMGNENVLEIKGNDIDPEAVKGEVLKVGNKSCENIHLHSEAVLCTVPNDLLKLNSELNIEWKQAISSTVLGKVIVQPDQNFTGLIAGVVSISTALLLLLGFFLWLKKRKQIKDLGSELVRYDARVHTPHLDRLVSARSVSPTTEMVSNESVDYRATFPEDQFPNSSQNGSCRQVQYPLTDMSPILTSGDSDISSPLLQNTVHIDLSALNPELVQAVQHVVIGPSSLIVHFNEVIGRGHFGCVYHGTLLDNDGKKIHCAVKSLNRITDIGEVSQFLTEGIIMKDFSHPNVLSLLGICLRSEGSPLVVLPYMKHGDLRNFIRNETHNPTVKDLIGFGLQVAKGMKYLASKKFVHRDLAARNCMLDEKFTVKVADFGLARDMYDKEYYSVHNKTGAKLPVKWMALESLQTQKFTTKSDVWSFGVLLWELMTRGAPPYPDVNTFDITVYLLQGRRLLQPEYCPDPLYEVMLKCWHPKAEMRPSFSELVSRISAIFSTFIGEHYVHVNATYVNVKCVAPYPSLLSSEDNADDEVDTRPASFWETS
Protocol: as §1

[5] = biological target: SYK (Homo sapiens, UniProt P43405); settings: read-out: Percent inhibition of kinase activity in vitro, SYK; for inhibition at 0.1 µM: 100 nM; for inhibition at 0.5 µM: 500 nM
Protocol: as §1

[6] = biological target: EEF2K (Homo sapiens, UniProt O00418); settings: read-out: Percent inhibition of kinase activity in vitro, EEF2K; for inhibition at 0.1 µM: 100 nM; for inhibition at 0.5 µM: 500 nM
Protocol: as §1

[7] = biological target: AKT1 (PKB alpha) (Homo sapiens, UniProt P31749); settings: read-out: Percent inhibition of kinase activity in vitro, AKT1 (PKB alpha); for inhibition at 0.1 µM: 100 nM; for inhibition at 0.5 µM: 500 nM
Sequence of AKT1 (PKB alpha) (P31749 whole entry): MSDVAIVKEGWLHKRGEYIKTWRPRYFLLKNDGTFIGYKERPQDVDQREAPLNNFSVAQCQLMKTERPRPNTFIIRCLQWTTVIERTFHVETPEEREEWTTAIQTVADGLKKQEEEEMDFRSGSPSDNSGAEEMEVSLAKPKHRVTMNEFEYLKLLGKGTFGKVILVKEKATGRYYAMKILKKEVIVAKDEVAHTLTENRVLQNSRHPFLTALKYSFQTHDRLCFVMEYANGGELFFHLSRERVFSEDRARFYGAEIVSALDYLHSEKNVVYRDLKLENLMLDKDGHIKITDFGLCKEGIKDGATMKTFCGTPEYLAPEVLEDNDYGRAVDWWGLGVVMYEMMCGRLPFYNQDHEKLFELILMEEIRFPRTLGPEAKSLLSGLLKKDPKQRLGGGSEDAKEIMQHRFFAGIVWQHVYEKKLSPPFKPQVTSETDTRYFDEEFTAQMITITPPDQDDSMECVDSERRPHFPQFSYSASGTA
Protocol: as §1

[8] = biological target: T2, PRKCI (PKC iota) (Homo sapiens, UniProt P41743); settings: 50 nM; read-out: Percent inhibition of kinase activity in vitro, PRKCI (PKC iota)
T2 sequence (P41743 1-596): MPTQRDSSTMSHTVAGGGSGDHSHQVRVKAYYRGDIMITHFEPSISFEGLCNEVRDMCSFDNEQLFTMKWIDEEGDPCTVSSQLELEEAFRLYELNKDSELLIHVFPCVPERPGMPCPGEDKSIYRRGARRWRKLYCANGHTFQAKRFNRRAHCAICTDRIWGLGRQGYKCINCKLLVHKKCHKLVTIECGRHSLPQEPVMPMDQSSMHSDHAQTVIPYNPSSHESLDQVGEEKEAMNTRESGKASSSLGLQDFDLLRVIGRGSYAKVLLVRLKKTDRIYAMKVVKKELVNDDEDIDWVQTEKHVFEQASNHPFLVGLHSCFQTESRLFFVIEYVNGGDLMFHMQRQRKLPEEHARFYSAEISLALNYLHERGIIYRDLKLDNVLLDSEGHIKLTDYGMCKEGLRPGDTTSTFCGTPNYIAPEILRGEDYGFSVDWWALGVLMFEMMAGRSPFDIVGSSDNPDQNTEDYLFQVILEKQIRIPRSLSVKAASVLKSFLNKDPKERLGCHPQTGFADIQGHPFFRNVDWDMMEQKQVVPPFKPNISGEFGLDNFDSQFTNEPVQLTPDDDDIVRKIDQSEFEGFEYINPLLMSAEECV
Protocol: as §1

[9] = biological target: PRKCD (PKC delta) (Homo sapiens, UniProt Q05655); settings: 50 nM; read-out: Percent inhibition of kinase activity in vitro, PRKCD (PKC delta)
Sequence of PRKCD (PKC delta) (Q05655 whole entry): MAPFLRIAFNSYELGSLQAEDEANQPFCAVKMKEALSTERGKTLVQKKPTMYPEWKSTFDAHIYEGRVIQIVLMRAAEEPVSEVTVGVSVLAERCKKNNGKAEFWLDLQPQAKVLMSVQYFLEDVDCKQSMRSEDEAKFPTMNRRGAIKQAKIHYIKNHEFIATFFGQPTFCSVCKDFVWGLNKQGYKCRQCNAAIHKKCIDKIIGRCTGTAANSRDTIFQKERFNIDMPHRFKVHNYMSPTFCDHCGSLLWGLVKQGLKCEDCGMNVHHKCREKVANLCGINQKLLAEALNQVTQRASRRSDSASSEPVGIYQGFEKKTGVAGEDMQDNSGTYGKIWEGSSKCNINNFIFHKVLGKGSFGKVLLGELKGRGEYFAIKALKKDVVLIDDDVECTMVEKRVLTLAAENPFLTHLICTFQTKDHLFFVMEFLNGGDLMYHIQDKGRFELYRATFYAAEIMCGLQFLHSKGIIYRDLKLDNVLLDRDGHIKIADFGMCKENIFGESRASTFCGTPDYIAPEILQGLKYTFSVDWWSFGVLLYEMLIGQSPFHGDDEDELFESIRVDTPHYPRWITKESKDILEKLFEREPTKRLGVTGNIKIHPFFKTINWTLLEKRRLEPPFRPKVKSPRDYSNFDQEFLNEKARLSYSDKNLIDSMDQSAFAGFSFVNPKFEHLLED
Protocol: as §1

[10] = biological target: PTK2 (FAK) (Homo sapiens, UniProt Q05397); settings: read-out: Percent inhibition of kinase activity in vitro, PTK2 (FAK); for inhibition at 0.1 µM: 100 nM; for inhibition at 0.5 µM: 500 nM
Sequence of PTK2 (FAK) (Q05397 whole entry): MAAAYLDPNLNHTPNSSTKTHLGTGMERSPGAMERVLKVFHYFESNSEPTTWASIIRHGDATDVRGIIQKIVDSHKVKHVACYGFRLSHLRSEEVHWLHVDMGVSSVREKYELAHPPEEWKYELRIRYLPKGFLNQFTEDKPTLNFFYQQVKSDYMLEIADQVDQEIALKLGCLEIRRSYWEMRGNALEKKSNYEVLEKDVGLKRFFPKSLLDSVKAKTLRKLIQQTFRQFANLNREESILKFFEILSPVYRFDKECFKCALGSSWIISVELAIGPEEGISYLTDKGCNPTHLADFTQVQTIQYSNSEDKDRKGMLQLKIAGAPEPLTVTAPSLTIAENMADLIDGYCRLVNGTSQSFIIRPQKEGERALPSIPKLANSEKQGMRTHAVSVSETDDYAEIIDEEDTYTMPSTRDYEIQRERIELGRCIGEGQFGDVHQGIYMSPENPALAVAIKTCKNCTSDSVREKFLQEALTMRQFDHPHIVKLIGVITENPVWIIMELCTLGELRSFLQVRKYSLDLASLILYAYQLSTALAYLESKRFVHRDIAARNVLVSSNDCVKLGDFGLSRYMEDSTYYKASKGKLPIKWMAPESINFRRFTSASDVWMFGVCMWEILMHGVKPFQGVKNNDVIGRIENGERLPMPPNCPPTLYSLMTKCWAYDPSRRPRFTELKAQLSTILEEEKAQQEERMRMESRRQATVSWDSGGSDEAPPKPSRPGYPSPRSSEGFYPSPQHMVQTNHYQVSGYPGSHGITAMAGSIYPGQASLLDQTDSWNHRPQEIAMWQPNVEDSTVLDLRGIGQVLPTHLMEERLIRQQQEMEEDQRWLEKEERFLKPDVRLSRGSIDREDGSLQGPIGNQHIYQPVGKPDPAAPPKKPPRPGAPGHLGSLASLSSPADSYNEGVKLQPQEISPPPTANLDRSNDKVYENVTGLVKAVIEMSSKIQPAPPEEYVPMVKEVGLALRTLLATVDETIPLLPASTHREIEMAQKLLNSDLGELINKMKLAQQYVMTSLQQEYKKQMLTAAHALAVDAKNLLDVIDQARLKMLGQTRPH
Protocol: as §1

Sequence of PRKCQ (PKC theta) (Q04759 whole entry, canonical isoform): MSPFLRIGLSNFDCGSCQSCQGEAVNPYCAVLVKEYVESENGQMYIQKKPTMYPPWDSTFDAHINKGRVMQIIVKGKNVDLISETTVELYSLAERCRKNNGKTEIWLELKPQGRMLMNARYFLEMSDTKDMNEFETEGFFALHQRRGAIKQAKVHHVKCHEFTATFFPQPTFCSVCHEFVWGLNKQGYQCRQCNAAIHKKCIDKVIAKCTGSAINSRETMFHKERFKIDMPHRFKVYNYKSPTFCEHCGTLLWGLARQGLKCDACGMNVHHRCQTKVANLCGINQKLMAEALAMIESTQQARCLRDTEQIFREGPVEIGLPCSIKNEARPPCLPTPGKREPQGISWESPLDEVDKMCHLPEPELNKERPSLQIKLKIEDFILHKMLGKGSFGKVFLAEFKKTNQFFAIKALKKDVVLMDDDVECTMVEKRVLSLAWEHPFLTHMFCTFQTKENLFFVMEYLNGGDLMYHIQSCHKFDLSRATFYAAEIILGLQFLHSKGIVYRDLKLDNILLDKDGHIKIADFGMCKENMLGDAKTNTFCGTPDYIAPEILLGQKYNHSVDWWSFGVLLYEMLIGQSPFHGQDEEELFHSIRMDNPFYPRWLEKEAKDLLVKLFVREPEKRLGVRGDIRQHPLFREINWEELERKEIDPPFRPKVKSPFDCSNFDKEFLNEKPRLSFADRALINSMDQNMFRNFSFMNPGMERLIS

Row | SMILES | inhibition at 0.05 µM [1] | inhibition at 0.05 µM [2] | inhibition at 0.05 µM [3] | inhibition at 0.1 µM [4] | inhibition at 0.5 µM [4] | inhibition at 0.1 µM [5] | inhibition at 0.5 µM [5] | inhibition at 0.1 µM [6] | inhibition at 0.5 µM [6] | inhibition at 0.1 µM [7] | inhibition at 0.5 µM [7] | inhibition at 0.05 µM [8] | inhibition at 0.05 µM [9] | inhibition at 0.1 µM [10] | inhibition at 0.5 µM [10]
1 | O=c1c2ccccc2[se]n1-c1nc(NC2CCCCC2)c2nc[nH]c2n1 [Compound 1] | 62% | 5% | 59% | 2% | 10% | 6% | 8% | 7% | 11% | 4% | 11% | 4% | 0% | 5% | 7%
2 | O=c1c2ccccc2[se]n1-c1nc(NC2CC[Se]C2)c2nc[nH]c2n1 (centres unmarked) [Compound 2] | – | – | – | 1% | 5% | 2% | 9% | – | 11% | 4% | 15% | – | – | 5% | 7%
3 | C[C@@H]1C(Nc2nc(-n3[se]c4ccccc4c3=O)nc3[nH]cnc23)C[C@H]2C[C@@H]1C2(C)C (some centres unmarked) [Compound 3] | – | – | – | 0% | 17% | 0% | 24% | – | 5% | 1% | 29% | – | – | 0% | 8%
4 | O=c1c2ccccc2[se]n1-c1nc(N[C@H]2CC[Se]C2)c2nc[nH]c2n1 [Compound 4] | 98% | 7% | 95% | 4% | – | 6% | – | 10% | – | 4% | – | 7% | 0% | 1% | –
5 | O=C1c2ccccc2CN1c1nc(NC2CCCCC2)c2nc[nH]c2n1 [SLLN-6C, reference compound] | 0% | 6% | 5% | 0% | – | 2% | – | 1% | – | 2% | – | 7% | 0% | 3% | –
